Results reported in patent publication US10118930B2, “Piperidinylpyrazolopyrimidinones and their use” (BAYER PHARMA AKTIENGESELLSCHAFT, priority 2015, dated 2018).
Where a name gives a salt, the structure may show the parent alone.

System: clot lysis (fibrinolysis) in diluted human citrated plasma, tPA-induced
Test: Plasma-based clot lysis assay (5%)
Type: biochemical
Settings: human citrated platelet-poor plasma 5%, fibrinogen 3 μM, CaCl2 10 mM, tPA 0.2 nM, 37° C., OD at 405 nm
Outline: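 Compounds added to 5% platelet-poor citrated human plasma with 3 μM fibrinogen in 20 mM HEPES, 150 mM NaCl, 0.01% Brij, pH 7. Clotting and lysis started with 10 mM CaCl2 and 0.2 nM tPA at 37° C. IC50 derived by comparing time courses with a blank control reaction.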

IC50 | Structure (SMILES)
8 nM | CCC(C)C(=O)c1cnn2c(C3CCNCC3)cc(=O)[nH]c12 (stereo not shown) [Example 452, 3-(2-methylbutanoyl)-7-(piperidin-4-yl)pyrazolo[1,5-a]pyrimidin-5 (4H)-one hydrochloride]
56 nM | O=c1cc(C2CCNCC2)n2ncc(-c3nc(-c4ccc(Cl)cc4)no3)c2[nH]1 [Example 157, 3-[3-(4-chlorophenyl)-1,2,4-oxadiazol-5-yl]-7-(piperidin-4-yl)pyrazolo[1,5-a]pyrimidin-5 (4H)-one hydrochloride]
110 nM | Cc1nn2c(C3CCNCC3)cc(=O)[nH]c2c1-c1ccc(Br)cc1 [Example 10, 3-(4-Bromophenyl)-2-methyl-7-(piperidin-4-yl)pyrazolo[1,5-a]pyrimidin-5(4H)-one hydrochloride]
11 nM | CCc1csc(-c2cnn3c(C4CCNCC4)cc(=O)[nH]c23)n1 [Example 308, 3-(4-ethyl-1,3-thiazol-2-yl)-7-(piperidin-4-yl)pyrazolo[1,5-a]pyrimidin-5(4H)-one hydrochloride]
770 nM | O=c1cc(C2CCNCC2)n2ncc(-c3ccccc3F)c2[nH]1 [Example 56, 3-(2-Fluorophenyl)-7-(piperidin-4-yl)pyrazolo[1,5-a]pyrimidin-5(4H)-one hydrochloride]
28 nM | Cc1nn2c(C3CCNCC3)cc(=O)[nH]c2c1-c1nc(-c2ccccc2OC(F)(F)F)no1 [Example 347, 2-methyl-7-(piperidin-4-yl)-3-{3-[2-(trifluoromethoxy)phenyl]-1,2,4-oxadiazol-5-yl}pyrazolo[1,5-a]pyrimidin-5(4H)-one hydrochloride]
78 nM | CCN(C)C(=O)c1c(C)nn2c(C3CCNCC3)cc(=O)[nH]c12 [Example 424, N-ethyl-N,2-dimethyl-5-oxo-7-(piperidin-4-yl)-4,5-dihydro-pyrazolo[1,5-a] pyrimidine-3-carboxamide hydrochloride]
